US6426355B1, “Heterocyclic carboxamide-containing thiourea inhibitors of herpes viruses containing phenylenediamine group” (American Home Products, priority 1998, dated 2002)
Converted amounts (≈) assume the structure as drawn.

Columns and labels:
[1] = test system: HCMV recombinant mutant virus (RV145); test: HCMV microtiter plate assay (beta-glucuronidase reporter); type: cell-based, Human Cytomegalovirus; conditions: HCMV in human foreskin fibroblasts
Summary of the method: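 Replication was read out as virus-encoded β-glucuronidase activity, measured with a chromogenic or fluorogenic glucuronide substrate in cell lysates at 96 h post-infection. Infection of human foreskin fibroblasts with RV145 took place with compound present. IC50 was derived from a range of inhibitor amounts.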

HSV-1 = test: HSV Antiviral (ELISA) assay; type: cell-based; conditions: HSV-1 in Vero cells
Summary of the method: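 Replication measured as glycoprotein D signal in fixed cells: anti-gD antibody plus β-galactosidase-linked secondary, fluorogenic substrate read at 365/450 nm. Vero cells (2% FBS DMEM) received compound 30 min pre-infection, HSV-1 MOI 0.006, ~24 h incubation; IC50 relative to no-compound fluorescence.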

VZV strain Ellen = test: VZV Antiviral (ELISA) assay; type: cell-based; conditions: VZV strain Ellen in HFF cells; for % inhibition 10 ug/ml VZV: at 10 ug/ml
Summary of the method: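 Cell-based ELISA: infected/uninfected HFF mix (VZV Ellen, MOI <0.1) exposed to compound in DMEM/2% FBS for 3 days at 37° C. Anti-gpII monoclonal plus β-galactosidase-linked secondary, detected as 4-methylumbelliferone fluorescence; IC50 derived by comparing fluorescence with versus without compound.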

SMILES | IC50 (ug/ml) HCMV [1] [µg/mL] | IC50 (ug/ml) HSV (HSV-1) [µg/mL] | IC50 (ug/ml) VZV (VZV strain Ellen) [µg/mL] | % inhibition 10 ug/ml VZV (VZV strain Ellen) [%]
CN(C)c1ccc(NC(=S)Nc2ccc(NC(=O)c3ccccn3)cc2)cc1Cl [Example 350] | 1 (≈ 2.35 µM) | >10 | >10 | 50
CSc1ccc(NC(=S)Nc2ccc(NC(=O)c3ccccn3)cc2)cc1Cl [Example 351] | 0.3 (≈ 0.699 µM) | 3 (≈ 6.99 µM) | 3.5 (≈ 8.16 µM) | 90
COc1cc(C)c(Cl)cc1NC(=S)Nc1ccc(NC(=O)c2ccccn2)cc1 [Example 352] | 0.6 (≈ 1.41 µM) | 3 (≈ 7.03 µM) | >10 | 51
COc1cc(C)c(Cl)cc1NC(=S)Nc1ccc(NC(=O)c2ccco2)cc1 [Example 353] | 0.04 (≈ 0.0962 µM) | 0.6 (≈ 1.44 µM) | 7 (≈ 16.8 µM) | 86
CN1CCC(N(C)c2ccc(NC(=S)Nc3ccc(NC(=O)c4ccccn4)cc3)cc2Cl)C1 (centres unmarked) [Example 354] | 2 (≈ 4.04 µM) | 0.8 (≈ 1.62 µM) | 7 (≈ 14.1 µM) | 75
CN(C)CC(=O)Nc1ccc(NC(=S)Nc2ccc(NC(=O)c3ccco3)cc2)cc1Cl [Example 361] | 0.25 (≈ 0.53 µM) | 8 (≈ 17 µM) | >10 | 26
O=C(CN1CCCCC1)Nc1ccc(NC(=S)Nc2ccc(NC(=O)c3ccco3)cc2)cc1Cl [Example 365] | 0.035 (≈ 0.0684 µM) | 10 (≈ 19.5 µM) | 5 (≈ 9.76 µM) | 75
O=C(CN1CCOCC1)Nc1ccc(NC(=S)Nc2ccc(NC(=O)c3ccco3)cc2)cc1Cl [Example 368] | 0.35 (≈ 0.681 µM) | >10 | >10 | 20
CS(=O)(=O)Nc1ccc(NC(=S)Nc2ccc(NC(=O)c3ccco3)cc2)cc1Cl [Example 371] | >10 | >10 | >10 | 45
CN1CCC(N(C)c2ccc(NC(=S)Nc3ccc(NC(=O)c4ccccn4)cc3)cc2Cl)CC1 [Example 376] | 0.8 (≈ 1.57 µM) | 3 (≈ 5.89 µM) | 7 (≈ 13.8 µM) | 83
O=C(Nc1ccc(NC(=S)Nc2ccc(Cl)c(C(F)(F)F)c2)cc1)c1ccco1 [Example 378] | 0.033 (≈ 0.075 µM) | >10 | >10 | 31
O=C(Nc1ccc(NC(=S)Nc2ccc(Cl)c(C(F)(F)F)c2)cc1)c1ccccn1 [Example 379] | >10 | >10 | >10 | 27
O=C(CN1CCCCC1)Nc1ccc(NC(=S)Nc2ccc(NC(=O)c3csnn3)cc2)cc1Cl [Example 391] | 0.019 (≈ 0.0358 µM) | 8 (≈ 15.1 µM) | 6 (≈ 11.3 µM) | 97
CN(C)CCSCC(=O)Nc1ccc(NC(=S)Nc2ccc(NC(=O)c3ccco3)cc2)cc1Cl [Example 396] | 0.7 (≈ 1.32 µM) | >10 | >10 | 26
CCOC(=O)Nc1ccc(NC(=S)Nc2ccc(NC(=O)c3ccco3)cc2)cc1Cl [Example 398] | 0.13 (≈ 0.283 µM) | >10 | >10 | 5
O=C(Nc1ccc(NC(=S)Nc2ccc(NC(=O)c3ccco3)cc2)cc1Cl)c1ccccc1 [Example 403] | 0.09 (≈ 0.183 µM) | 6 (≈ 12.2 µM) | >15 | 108
O=C(CN1CCSCC1)Nc1ccc(NC(=S)Nc2ccc(NC(=O)c3ccco3)cc2)cc1Cl [Example 406] | 0.12 (≈ 0.226 µM) | >10 | >10 | 28
CC(=O)Nc1ccc(NC(=S)Nc2ccc(NC(=O)c3ccco3)cc2)cc1Cl [Example 409] | 2 (≈ 4.66 µM) | >10 | >10 | 5
CCCN(CCC)CC(=O)Nc1ccc(NC(=S)Nc2ccc(NC(=O)c3ccco3)cc2)cc1Cl [Example 411] | 0.024 (≈ 0.0454 µM) | 8 (≈ 15.1 µM) | 2 (≈ 3.79 µM) | 99
CCN(CC)CC(=O)Nc1ccc(NC(=S)Nc2ccc(NC(=O)c3ccco3)cc2)cc1Cl [Example 413] | 0.081 (≈ 0.162 µM) | 5 (≈ 10 µM) | 5 (≈ 10 µM) | 103
O=C(CN1CCCC1)Nc1ccc(NC(=S)Nc2ccc(NC(=O)c3ccco3)cc2)cc1Cl [Example 416] | 0.25 (≈ 0.502 µM) | >10 | >15 | 87
Nc1ccc(NC(=S)Nc2ccc(NC(=O)c3ccco3)cc2)cc1Cl [Example 421] | 0.75 (≈ 1.94 µM) | 8 (≈ 20.7 µM) | >10 | 
O=C(CN1CCCCCC1)Nc1ccc(NC(=S)Nc2ccc(NC(=O)c3ccco3)cc2)cc1Cl [Example 422] | 0.058 (≈ 0.11 µM) | 5 (≈ 9.5 µM) | >10 | 69
CC1CCCCN1CC(=O)Nc1ccc(NC(=S)Nc2ccc(NC(=O)c3ccco3)cc2)cc1Cl (centres unmarked) [Example 424] | 0.09 (≈ 0.171 µM) | 3 (≈ 5.7 µM) | 0.7 (≈ 1.33 µM) | 103
Nc1cccc(NC(=S)Nc2ccc(NC(=O)c3ccco3)cc2)c1 [Example 430] | 0.4 (≈ 1.14 µM) | >10 | >10 | 
O=C(Nc1ccc(NC(=S)Nc2cccc(C(F)(F)F)c2)cc1)c1ccco1 [Example 431] | 0.06 (≈ 0.148 µM) | >10 | >10 | 
Nc1cc(Cl)cc(NC(=S)Nc2ccc(NC(=O)c3ccco3)cc2)c1 [Example 435] | 0.08 (≈ 0.207 µM) | 10 (≈ 25.8 µM) | 0.9 (≈ 2.33 µM) | 94
Cc1cccc(NC(=S)Nc2ccc(NC(=O)c3ccco3)cc2)c1 [Example 436] | 0.15 (≈ 0.427 µM) | 10 (≈ 28.5 µM) | >10 | 
O=C(Nc1ccc(NC(=S)Nc2ccc(NC(=O)c3ccccc3F)cc2)cc1Cl)OCCN1CCCCC1 [Example 438] | 3 (≈ 5.26 µM) | 5 (≈ 8.77 µM) | 1.5 (≈ 2.63 µM) | 73
O=C(Nc1ccc(NC(=S)Nc2ccc(NC(=O)c3ccco3)cc2)cc1Cl)OCCN1CCCCC1 [Example 439] | 0.5 (≈ 0.922 µM) | 9 (≈ 16.6 µM) | >10 | 46
